# In patent publication US9771378B2 (Denali Therapeutics, Inc., priority 2014, dated 2017):
# Test system: Aβ42 (human neuroglioma H4 cells expressing human wild type APP751)
# Experiment: In vitro cell screening assay with sandwich ELISA quantification of Aβ42 peptide
# Type: cell-based
# Details: H4 cells stably expressing human wild type APP751; Pro293 chemically defined medium; compounds 0.003-10 μM; incubated overnight (16-18 h); supernatant Aβ42 by sandwich ELISA; normalized to DMSO and DAPT; read-out: Aβ42 H4 Prot Fre IC50
# Procedure, shortened: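 Aβ42 in supernatants was quantified by sandwich ELISA with C-terminal-specific capture and 4G8-HRP detection, absorbance at 450 nm. Stable APP751-expressing human H4 cells received compound at 0.003-10 μM (0.33% DMSO) overnight (16-18 h). IC50 was derived from percent-of-DMSO-control data by nonlinear variable-slope fit.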
smiles,measurement,value
"Cc1cc(-c2ccc(Nc3ncc4c(n3)N(C)C(c3cc(F)cc(F)c3)CO4)cc2F)ccn1 (single isomer, unassigned; (-)) [Example 41B]",IC50,1260 nM
"COc1cc(Nc2ncc3c(n2)N2CCC(F)(F)C2CO3)ccc1-n1cnc(C)c1 (single isomer, unassigned; (+)) [Example 304B, (+)-7,7-difluoro-N-(3-methoxy-4-(4-methyl-1H-imidazol-1-yl)phenyl)-6a, 7,8,9-tetrahydro-6H-pyrimido [5,4-b] pyrrolo [1,2-d] [1, 4] oxazin-2-amine]",IC50,75 nM
"Cc1cn(-c2ccc(Nc3ncc4c(n3)N(C)C(c3ccccc3Cl)CO4)cc2F)cn1 (single isomer, unassigned; (+)) [Example 67A]",IC50,124 nM
"Cc1cn(-c2ccc(Nc3ncc4c(n3)N(C)C(c3cc(Cl)ccc3C(F)(F)F)CO4)cc2F)cn1 (single isomer, unassigned; (+)) [Example 100A]",IC50,101 nM
COc1cc(Nc2ncc3c(n2)N(C)C(C)(C)CO3)cnc1-n1cnc(C)c1 [Example 261],IC50,139 nM
"COc1cc(Cl)c(C2COc3cnc(Nc4ccc(-n5cnc(C)c5)c(OC)c4)nc3N2C)cc1Cl (single isomer, unassigned; (+)) [Example 174B]",IC50,32 nM
"COc1cc(Nc2ncc3c(n2)N(C)C(C2(C(F)(F)F)CC2)CO3)cnc1-n1cnc(C)c1 (single isomer, unassigned; (-)) [Example 247A]",IC50,252 nM
"Cc1cn(-c2ccc(Nc3ncc4c(n3)N(C)C(c3ccccc3C(F)(F)F)CO4)cc2F)cn1 (single isomer, unassigned; (-)) [Example 84B]",IC50,421 nM
"COc1cc(Nc2ncc3c(n2)N(C)C(c2ccc(F)cc2F)CO3)ccc1-n1cnc(C)c1 (single isomer, unassigned; (+)) [Example 48B]",IC50,20 nM
"COc1ccc(C2COc3cnc(Nc4cnc(-n5cnc(C)c5)c(OC)c4)nc3N2C)c(C)c1 (single isomer, unassigned; (+)) [Example 215A]",IC50,16 nM
COc1cc(Nc2ncc3c(n2)N(C)C(c2cc(F)c(F)c(F)c2)CO3)ccc1-c1ccnc(C)c1 (racemic) [Example 39],IC50,35 nM
COC[C@@H]1COc2cnc(Nc3ccc(-n4cnc(C)c4)c(OC)c3)nc2N1C [Example 176],IC50,369 nM
COc1cc(Nc2ncc3c(n2)N(C)C2(CO3)CC(F)(F)C2)ccc1-n1cnc(Cl)c1 [Example 277],IC50,97 nM
"Cc1cc(-c2ccc(Nc3ncc4c(n3)N(C)C(c3ccc(F)cc3F)CO4)cc2F)ccn1 (single isomer, unassigned; (+)) [Example 66A]",IC50,488 nM
COc1cc(Nc2ncc3c(n2)N(C)C(c2cc(F)cc(F)c2)CO3)ccc1-c1ccnc(C)c1 (racemic) [Example 42],IC50,47 nM
"COc1cc(Nc2ncc3c(n2)N(C)[C@H](c2ccccc2)CO3)ccc1-c1ccnc(C)c1 [Example 22B, (R)—N-(3-methoxy-4-(2-methylpyridin-4-yl)phenyl)-8-methyl-7-phenyl-7,8-dihydro-6H-pyrimido[5,4-b][1,4]oxazin-2-amine]",IC50,168 nM
"Cc1cc(-c2ccc(Nc3ncc4c(n3)N(C)C(c3ccc(F)cc3Cl)CO4)cc2F)ccn1 (single isomer, unassigned; (+)) [Example 102A]",IC50,415 nM
"COc1cc(Nc2ncc3c(n2)N(C)C(C2CCOCC2)CO3)ccc1-n1cnc(C)c1 (single isomer, unassigned; (-)) [Example 114A]",IC50,494 nM
"COc1cc(Nc2ncc3c(n2)N(C)C(c2ccc(Cl)cc2C(F)(F)F)CO3)ccc1-c1ccnc(C)c1 (single isomer, unassigned; (+)) [Example 107B]",IC50,174 nM
"COc1cc(Nc2ncc3c(n2)N(C)C(c2cc(F)cc(F)c2)CO3)ccc1-n1cnc(C)n1 (single isomer, unassigned; (+)) [Example 244A]",IC50,23 nM
"COc1cc(Nc2ncc3c(n2)N(C)C(c2cc(F)cc(F)c2)CO3)cnc1-n1cnc(C)c1 (single isomer, unassigned; (-)) [Example 189B]",IC50,655 nM
"COc1cc(Nc2ncc3c(n2)N2CCC(F)(F)C2CO3)cnc1-n1cnc(C)c1 (single isomer, unassigned; (+)) [Example 305A, (+)-7,7-difluoro-N-(5-methoxy-6-(4-methyl-1H-imidazol-1-yl)pyridin-3-yl)-6a, 7,8,9-tetrahydro-6H-pyrimido [5,4-b] pyrrolo [1,2-d] [1, 4] oxazin-2-amine]",IC50,132 nM
